SMILES strings stand for the structures.

Experiment [1] concerns the target T1, LRRK2 WT (Homo sapiens, UniProt Q5S007). The experiment in a line: In vitro kinase assay: LRRK2 autophosphorylation. To be noted: compound 16 μM; phosphorylation normalized to absence of compound; mean ± S.E.M. of three experiments. It counts as biochemical.
Experiment [2] concerns the target T1, LRRK2 WT. The experiment in a line: In vitro kinase assay: LRRK2-mediated MBP phosphorylation. The format is biochemical. The following applies: compound 16 μM; 30° C., 15 min; normalized to absence of compound; mean ± S.E.M. of three experiments.

T1 sequence (Q5S007 whole entry): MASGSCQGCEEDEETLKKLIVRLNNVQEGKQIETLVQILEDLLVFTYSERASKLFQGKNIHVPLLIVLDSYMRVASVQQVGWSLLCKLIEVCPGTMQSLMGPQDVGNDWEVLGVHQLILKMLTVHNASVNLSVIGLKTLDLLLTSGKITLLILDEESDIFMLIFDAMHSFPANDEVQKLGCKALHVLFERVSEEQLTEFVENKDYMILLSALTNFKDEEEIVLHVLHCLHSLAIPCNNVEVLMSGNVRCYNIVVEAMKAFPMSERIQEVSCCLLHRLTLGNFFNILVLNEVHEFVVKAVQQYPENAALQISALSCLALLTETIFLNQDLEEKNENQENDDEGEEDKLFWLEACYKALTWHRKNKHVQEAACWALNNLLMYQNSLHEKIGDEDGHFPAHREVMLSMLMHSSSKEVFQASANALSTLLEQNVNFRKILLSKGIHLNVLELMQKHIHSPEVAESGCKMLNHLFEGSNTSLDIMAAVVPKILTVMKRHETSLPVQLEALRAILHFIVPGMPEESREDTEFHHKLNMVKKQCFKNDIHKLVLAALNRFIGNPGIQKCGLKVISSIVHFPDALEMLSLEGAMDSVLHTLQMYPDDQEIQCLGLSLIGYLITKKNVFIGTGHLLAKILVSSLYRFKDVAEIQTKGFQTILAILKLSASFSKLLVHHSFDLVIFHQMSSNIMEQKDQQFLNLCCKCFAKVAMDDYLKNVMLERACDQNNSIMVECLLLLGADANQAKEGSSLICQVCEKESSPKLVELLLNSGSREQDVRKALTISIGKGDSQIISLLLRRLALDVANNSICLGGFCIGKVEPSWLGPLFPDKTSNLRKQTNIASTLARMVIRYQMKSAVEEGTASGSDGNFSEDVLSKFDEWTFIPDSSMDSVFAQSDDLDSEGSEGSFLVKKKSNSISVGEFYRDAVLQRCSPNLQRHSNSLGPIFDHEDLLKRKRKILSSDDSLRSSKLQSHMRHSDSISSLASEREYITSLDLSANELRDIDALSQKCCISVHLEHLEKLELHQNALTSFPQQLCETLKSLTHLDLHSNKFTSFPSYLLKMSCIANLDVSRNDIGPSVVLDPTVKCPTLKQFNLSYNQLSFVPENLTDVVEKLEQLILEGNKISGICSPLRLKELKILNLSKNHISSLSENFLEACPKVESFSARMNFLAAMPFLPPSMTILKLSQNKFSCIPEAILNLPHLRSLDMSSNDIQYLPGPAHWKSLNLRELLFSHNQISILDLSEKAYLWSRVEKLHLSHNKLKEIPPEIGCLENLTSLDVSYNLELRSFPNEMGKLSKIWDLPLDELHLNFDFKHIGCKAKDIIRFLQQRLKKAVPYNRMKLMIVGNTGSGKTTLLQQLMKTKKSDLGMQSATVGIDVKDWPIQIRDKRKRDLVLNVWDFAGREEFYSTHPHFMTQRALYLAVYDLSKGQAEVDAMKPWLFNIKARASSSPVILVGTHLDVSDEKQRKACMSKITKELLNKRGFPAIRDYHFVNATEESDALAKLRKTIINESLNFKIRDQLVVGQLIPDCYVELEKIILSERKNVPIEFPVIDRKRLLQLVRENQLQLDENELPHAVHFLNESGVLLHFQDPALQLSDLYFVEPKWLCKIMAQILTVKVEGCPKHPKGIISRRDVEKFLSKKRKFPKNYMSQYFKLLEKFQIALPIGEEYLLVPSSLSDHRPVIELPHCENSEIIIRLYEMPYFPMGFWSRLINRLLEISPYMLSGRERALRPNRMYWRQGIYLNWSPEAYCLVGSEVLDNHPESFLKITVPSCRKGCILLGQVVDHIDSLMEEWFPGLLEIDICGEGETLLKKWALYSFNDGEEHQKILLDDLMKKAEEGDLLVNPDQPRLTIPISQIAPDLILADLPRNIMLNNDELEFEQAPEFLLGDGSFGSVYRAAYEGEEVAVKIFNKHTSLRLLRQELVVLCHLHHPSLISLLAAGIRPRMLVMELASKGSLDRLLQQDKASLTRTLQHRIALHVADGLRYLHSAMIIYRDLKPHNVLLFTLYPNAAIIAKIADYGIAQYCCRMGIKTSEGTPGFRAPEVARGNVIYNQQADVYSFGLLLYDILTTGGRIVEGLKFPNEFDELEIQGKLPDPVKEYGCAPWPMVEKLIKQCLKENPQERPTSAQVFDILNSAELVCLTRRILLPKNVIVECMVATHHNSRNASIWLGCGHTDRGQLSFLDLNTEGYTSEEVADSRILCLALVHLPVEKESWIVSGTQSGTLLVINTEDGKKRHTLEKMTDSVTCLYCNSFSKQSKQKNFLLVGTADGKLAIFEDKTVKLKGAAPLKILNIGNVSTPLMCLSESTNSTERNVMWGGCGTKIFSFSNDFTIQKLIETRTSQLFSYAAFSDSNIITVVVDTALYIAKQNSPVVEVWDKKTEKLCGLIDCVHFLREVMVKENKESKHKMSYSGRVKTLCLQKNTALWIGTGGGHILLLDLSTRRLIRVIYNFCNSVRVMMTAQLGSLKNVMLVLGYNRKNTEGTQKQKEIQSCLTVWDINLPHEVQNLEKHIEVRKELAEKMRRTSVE

In the case of `Oc1ccc(-c2nc(-c3ccc(F)cc3)c(-c3ccncc3)[nH]2)cc1` [Inhibitor 51], the “LRRK2 autophosphorylation Average ± SEM” value at LRRK2 WT [1] is on record as 64.9 ± 20.9 % of control. The “MBP phosphorylation Average ± SEM” value at LRRK2 WT [2] is listed as 125.5 ± 52.6 % of control.

For `CC(C)(C)n1nc(-c2ccc(Cl)cc2)c2c(N)ncnc21` [Inhibitor 52], the “LRRK2 autophosphorylation Average ± SEM” value at LRRK2 WT [1] is given as 45.7 ± 22.1 % of control. For the same compound, the “MBP phosphorylation Average ± SEM” value at LRRK2 WT [2] is recorded as 98.1 ± 44.2 % of control.

Take `Cc1ccc(NC(=O)c2cccc(N(C)C)c2)cc1NC(=O)c1ccc(O)cc1` [Inhibitor 53]: the “LRRK2 autophosphorylation Average ± SEM” value on LRRK2 WT [1] is recorded as 89.2 ± 2.7 % of control. Also, on LRRK2 WT [2], the “MBP phosphorylation Average ± SEM” value is 152.6 ± 38.0 % of control.

As to `CN(C)c1ccc(/C=C2\C(=O)Nc3ccccc32)cc1` [Inhibitor 54], at LRRK2 WT [1], the “LRRK2 autophosphorylation Average ± SEM” value is listed as 37.5 ± 13.9 % of control. Further, the “MBP phosphorylation Average ± SEM” value on LRRK2 WT [2] is reported as 112.8 ± 34.9 % of control.

For the compound `COc1cc2ncc(-c3ccccc3)nc2cc1OC` [Inhibitor 55], the “LRRK2 autophosphorylation Average ± SEM” value at LRRK2 WT [1] is 61.2 ± 9.6 % of control. In addition, the “MBP phosphorylation Average ± SEM” value on LRRK2 WT [2] was 131.7 ± 34.2 % of control.

As to `CC(=O)c1c(O)c(C)c(O)c(Cc2c(O)c3c(c(C(=O)/C=C/c4ccccc4)c2O)OC(C)(C)C=C3)c1O` [Inhibitor 58], the “LRRK2 autophosphorylation Average ± SEM” value on LRRK2 WT [1] is listed as 28.1 ± 39.8 % of control. Also, at LRRK2 WT [2], the “MBP phosphorylation Average ± SEM” value is 147.2 ± 64.3 % of control.

For the compound `O=c1c(-c2ccc(O)cc2)coc2cc(O)cc(O)c12` [Inhibitor 59], the “LRRK2 autophosphorylation Average ± SEM” value at LRRK2 WT [1] is 69.4 ± 37.9 % of control. Also, the “MBP phosphorylation Average ± SEM” value on LRRK2 WT [2] was 63.1 ± 66.7 % of control.

In the case of `O=c1c(-c2ccc(O)cc2)coc2cc(O)ccc12` [Inhibitor 60], the “LRRK2 autophosphorylation Average ± SEM” value on LRRK2 WT [1] is listed as 81.0 ± 31.9 % of control. Also, the “MBP phosphorylation Average ± SEM” value on LRRK2 WT [2] is 141.0 ± 50.8 % of control.

`COC(=O)/C=C/c1cc(O)ccc1O` [Inhibitor 61]: the “LRRK2 autophosphorylation Average ± SEM” value at LRRK2 WT [1] is reported as 73.0 ± 5.3 % of control. Further, the “MBP phosphorylation Average ± SEM” value on LRRK2 WT [2] is on record as 93.9 ± 11.5 % of control.

Consider `O=c1c(O)c(-c2ccc(O)c(O)c2)oc2cc(O)cc(O)c12` [Inhibitor 62, Quercetin dihydrate], for which, at LRRK2 WT [1], the “LRRK2 autophosphorylation Average ± SEM” value is 39.2 ± 39.9 % of control. On LRRK2 WT [2], the “MBP phosphorylation Average ± SEM” value is 70.1 ± 40.5 % of control.

Take `CC(C)c1cc(/C=C(\C#N)C(=O)NCCCc2ccccc2)cc(C(C)C)c1O` [Inhibitor 63]: at LRRK2 WT [1], the “LRRK2 autophosphorylation Average ± SEM” value is 68.5 ± 1.5 % of control. Besides, on LRRK2 WT [2], the “MBP phosphorylation Average ± SEM” value is listed as 101.3 ± 25.3 % of control.

For the compound `C=CC(=O)c1ccc2ccccc2c1` [Inhibitor 64], at LRRK2 WT [1], the “LRRK2 autophosphorylation Average ± SEM” value is 70.7 ± 4.2 % of control. Also, the “MBP phosphorylation Average ± SEM” value at LRRK2 WT [2] is given as 123.7 ± 26.3 % of control.

`Cc1ccc(S(=O)(=O)/C=C/C#N)cc1` [Inhibitor 65]: on LRRK2 WT [1], the “LRRK2 autophosphorylation Average ± SEM” value is recorded as 75.1 ± 12.8 % of control. Moreover, on LRRK2 WT [2], the “MBP phosphorylation Average ± SEM” value is 124.8 ± 23.5 % of control.

Turning to `OC[C@@H]1O[C@H](n2cnc3cc(Cl)c(Cl)cc32)[C@@H](O)[C@H]1O` [Inhibitor 66], the “LRRK2 autophosphorylation Average ± SEM” value on LRRK2 WT [1] was 56.4 ± 12.9 % of control. Also, at LRRK2 WT [2], the “MBP phosphorylation Average ± SEM” value is given as 120.8 ± 78.0 % of control.

For the compound `COCc1cc(O)c(O)c(O)c1-c1c(COC)cc(O)c(O)c1O` [Inhibitor 67], on LRRK2 WT [1], the “LRRK2 autophosphorylation Average ± SEM” value is reported as 79.2 ± 24.2 % of control. The “MBP phosphorylation Average ± SEM” value on LRRK2 WT [2] is listed as 123.2 ± 33.8 % of control.

On to `O=C1Nc2ccccc2/C1=C1\Nc2ccccc2C1=O` [Inhibitor 69], for which the “LRRK2 autophosphorylation Average ± SEM” value at LRRK2 WT [1] is listed as 82.0 ± 4.2 % of control. Besides, at LRRK2 WT [2], the “MBP phosphorylation Average ± SEM” value is recorded as 110.3 ± 28.4 % of control.

Turning to `C#COC1(C)[C@@H]2CC[C@@H](O2)C1(C)C(=O)O` (some centres unmarked) [Inhibitor 71], at LRRK2 WT [1], the “LRRK2 autophosphorylation Average ± SEM” value is 75.9 ± 2.1 % of control. For the same compound, on LRRK2 WT [2], the “MBP phosphorylation Average ± SEM” value was 99.8 ± 3.4 % of control.

Consider `C[C@@]12C(=O)OC(=O)[C@]1(C)[C@H]1CC[C@@H]2O1` [Inhibitor 72], for which, at LRRK2 WT [1], the “LRRK2 autophosphorylation Average ± SEM” value is 69.1 ± 8.8 % of control. Further, the “MBP phosphorylation Average ± SEM” value at LRRK2 WT [2] was 109.7 ± 22.4 % of control.

Take `C#COC1C(C(=O)O)[C@H]2CC[C@@H]1O2` (some centres unmarked) [Inhibitor 73]: at LRRK2 WT [1], the “LRRK2 autophosphorylation Average ± SEM” value is 78.8 ± 5.1 % of control. Moreover, at LRRK2 WT [2], the “MBP phosphorylation Average ± SEM” value is given as 128.9 ± 9.4 % of control.

With `O=P(O)(O)Cc1ccccc1` [Inhibitor 74], the “LRRK2 autophosphorylation Average ± SEM” value on LRRK2 WT [1] is given as 68.3 ± 1.85 % of control. For the same compound, on LRRK2 WT [2], the “MBP phosphorylation Average ± SEM” value is 121.8 ± 23.6 % of control.

For `Brc1ccc([C@H]2CN3CCSC3=N2)cc1` [Inhibitor 75], the “LRRK2 autophosphorylation Average ± SEM” value on LRRK2 WT [1] is 75.9 ± 3.9 % of control. Also, the “MBP phosphorylation Average ± SEM” value at LRRK2 WT [2] was 83.2 ± 50.5 % of control.

Turning to `Cl.c1ccc([C@H]2CN3CCSC3=N2)cc1` [Inhibitor 78], the “LRRK2 autophosphorylation Average ± SEM” value on LRRK2 WT [1] was 74.6 ± 1.7 % of control. Besides, on LRRK2 WT [2], the “MBP phosphorylation Average ± SEM” value is 133.2 ± 17.6 % of control.

Regarding `Cl.c1ccc(C2CN3CCSC3=N2)cc1` (centres unmarked) [Inhibitor 79], at LRRK2 WT [1], the “LRRK2 autophosphorylation Average ± SEM” value is listed as 75.0 ± 2.3 % of control. The “MBP phosphorylation Average ± SEM” value on LRRK2 WT [2] is given as 138.8 ± 33.9 % of control.

For the compound `CC1(C)[C@H](C=C(Cl)Cl)[C@@H]1C(=O)O[C@H](C#N)c1cccc(Oc2ccccc2)c1` [Inhibitor 80], the “LRRK2 autophosphorylation Average ± SEM” value on LRRK2 WT [1] was 66.4 ± 17.4 % of control. The “MBP phosphorylation Average ± SEM” value at LRRK2 WT [2] was 76.9 ± 13.7 % of control.

`CC1(C)[C@H](C=C(Br)Br)[C@@H]1C(=O)O[C@H](C#N)c1cccc(Oc2ccccc2)c1` [Inhibitor 81]: the “LRRK2 autophosphorylation Average ± SEM” value at LRRK2 WT [1] is 73.9 ± 2.2 % of control. Besides, the “MBP phosphorylation Average ± SEM” value on LRRK2 WT [2] is listed as 99.6 ± 23.1 % of control.

On to `CC(C)C(C(=O)OC(C#N)c1cccc(Oc2ccccc2)c1)c1ccc(Cl)cc1` (centres unmarked) [Inhibitor 82], for which the “LRRK2 autophosphorylation Average ± SEM” value at LRRK2 WT [1] is on record as 80.4 ± 13.0 % of control. The “MBP phosphorylation Average ± SEM” value at LRRK2 WT [2] was 61.5 ± 54.0 % of control.

`N#CC(C#N)=Cc1ccc(O)cc1` [Inhibitor 83]: the “LRRK2 autophosphorylation Average ± SEM” value on LRRK2 WT [1] is on record as 68.6 ± 35.5 % of control. The “MBP phosphorylation Average ± SEM” value at LRRK2 WT [2] is given as 118.2 ± 51.8 % of control.

Regarding `CC(C)CC(NC(=O)[C@H](CCC(=O)O)NC(=O)CNC(=O)c1ccc(/C=C/C(=O)O)cc1)C(N)=O` (some centres unmarked) [Inhibitor 84], at LRRK2 WT [1], the “LRRK2 autophosphorylation Average ± SEM” value was 63.9 ± 12.0 % of control. Besides, the “MBP phosphorylation Average ± SEM” value on LRRK2 WT [2] is reported as 124.1 ± 37.2 % of control.
